Reference: patent US8729312B2, “Derivatives of novel peroxides, method of preparation thereof and use thereof in human medicine as well as in cosmetics for the treatment or prevention of acne” (Galderma Research & Development, priority 2009, dated 2014)
In brackets after ≈: the same amount, converted by molar mass. Several values for one entry are separate records, joined by “and”; a condition that tells them apart may be missing. Identical values can stand only once.

Tests used:
[1] = test system: P. acnes CIPA179; experiment: Minimum inhibitory concentration (MIC) on Propionibacterium acnes, dilution in liquid medium; format: cell-based; conditions: strain CIPA179, anaerobic, 36° C., minimum 72 h, range 2.5 mg/L to 1280 mg/L
Excerpt: (§1) the aim is to evaluate the anti-bacterial activity of the peroxides by measuring the minimum inhibitory concentration (MIC). The MIC is defined as the lowest concentration of product capable of inhibiting all visible growth.
(§2) The sensitivity of the products is investigated on two strains from the Pasteur Institute collection (CIP) of Propionibacterium acnes (P. acnes): • P. acnes CIP53.117, equivalent to ATCC6919, origin: facial acne lesion (1920), source CRBIP, Pasteur Institute, Paris • P. acnes CIPA179, origin: sebaceous gland (1946), source CRBIP, Pasteur Institute, Paris Tests on the Products:
(§3) The products are dissolved at 1280 mg/L in a mixture of absolute ethanol/sterile Tween 80/sterile Wilkins Chalgren broth ([…]). The dilution ranges used are an adaptation of the method described by the CLSI for methods of dilution in liquid medium. The range consists of 10 concentrations from 2.5 mg/L to 1280 mg/L at intervals of ratio 2.
(§4) The suspension of P. acnes is prepared in Wilkins Chalgren broth and calibrated at an optical density of about 0.4 at wavelength of 525 nm. It is then diluted to 1/10 in Wilkins Chalgren broth and then put in the test cupules to obtain a final suspension of about 10^5-10^6 CFU/mL in each test cupule.
(§5) The solutions of the test products are distributed on a 96-well microplate and incubated at 36° C.±2° C. under anaerobic atmosphere for a minimum of 72 h. The first cupule for which there is no growth visible to the naked eye is regarded as the MIC.

[2] = test system: P. acnes CIP53.117; experiment: as above; format: cell-based; conditions: strain CIP53.117, anaerobic, 36° C., minimum 72 h, range 2.5 mg/L to 1280 mg/L
Excerpt: as §1, §2, §3, §4, §5

[3] = test system: TPA-induced ear oedema; experiment: Anti-inflammatory activity after a single topical administration in TPA-induced ear oedema; format: in vivo, mouse; conditions: for Inhibition vs TPA (%) / Ear oedema Mean / anti-inflammatory effect (conclusion in words): single topical application; for Inhibition vs TPA (%): T6h; for Ear oedema Mean: mouse ear thickness at T6h; for ranking compared to BPO at 5%: compound at 5%
Procedure: the aim is to evaluate the anti-inflammatory activity of the peroxides by measuring the thickness of mouse ear after TPA topical application. The anti-inflammatory activity is defined as a inhibition percentage of the TAP-induced ear oedema.
An oedema was induced by a single topical application of 20 μl of TPA dissolved in acetone at 0.01%.
Then a single topical application of tested compounds dissolved in TPA solution.
Ear thickness was measured at T6h.
Results are expressed in percentages based on the inhibition on the oedema induced by the TPA application.
Benzoyl peroxide (BPO) was tested 2 times as a reference peroxide.

[4] = TPA-induced ear oedema mouse model

SMILES: CC(=O)OCOc1ccccc1C(=O)OOC(=O)c1ccccc1 [Example 2, (2-acetoxymethoxy-benzoyl)benzoyl peroxide]
- MIC ([1]; Cutibacterium acnes): 80 µg/mL (≈ 242 µM)
- MIC ([2]; Cutibacterium acnes): 160 µg/mL (≈ 484 µM)
- Inhibition vs TPA (%) ([3]; compound 1% in TPA 0.01%): 19.7%
- Ear oedema Mean ([3]; compound 1% in TPA 0.01%): 20.40
- Inhibition vs TPA (%) ([3]; compound 2.5% in TPA 0.01%): 42.5%
- Ear oedema Mean ([3]; compound 2.5% in TPA 0.01%): 14.60
- Inhibition vs TPA (%) ([3]; compound 5% in TPA 0.01%): 71.7%
- Ear oedema Mean ([3]; compound 5% in TPA 0.01%): 7.20
- ranking compared to BPO at 5% [3, 4]: superior compared to BPO 5%
- anti-inflammatory effect (conclusion in words) [3, 4]: moderate anti-inflammatory effect

SMILES: CC(=O)OCOc1ccccc1C(=O)OOC(=O)c1ccccc1OCOC(C)=O [Example 1, bis(2-acetoxymethoxy)-benzoyl peroxide]
- MIC (minimum inhibitory concentration) [1]: 320 mg/L (≈ 765 µM)
- MIC (minimum inhibitory concentration) [2]: 320 mg/L (≈ 765 µM)
- ranking of Ex n°1 against Ex n°2 ([3]; both at 5%, TPA-induced ear oedema mouse model): slightly better than Ex n°2 at 5%
- Inhibition vs TPA (%) ([3]; compound 1% in TPA 0.01%): 45.7%
- Ear oedema Mean ([3]; compound 1% in TPA 0.01%): 13.80
- Inhibition vs TPA (%) ([3]; compound 2.5% in TPA 0.01%): 74.8%
- Ear oedema Mean ([3]; compound 2.5% in TPA 0.01%): 6.40
- Inhibition vs TPA (%) ([3]; compound 5% in TPA 0.01%): 81.9%
- Ear oedema Mean ([3]; compound 5% in TPA 0.01%): 4.60
- ranking compared to BPO at 5% [3, 4]: superior compared to BPO 5%
- anti-inflammatory effect (conclusion in words) [3, 4]: strong dose-dependent anti-inflammatory effect

SMILES: O=C(OOC(=O)c1ccccc1)c1ccccc1 [BPO, Benzoyl peroxide, reference compound]
- Inhibition vs TPA (%) ([3]; compound 5% in TPA 0.01%): 21.4% and 27.8%
- Ear oedema Mean ([3]; compound 5% in TPA 0.01%): 17.60 and 20.80
